The values that follow are results of earlier work, collected in patent publication US12011508B2, “Methods and devices for reducing vascular smooth muscle cell proliferation” (Board of Supervisors of Louisiana State University and …, priority 2018, dated 2024).

For the compound `O=c1c(O)c(-c2ccc(O)c(O)c2)oc2cc(O)cc(O)c12` [QUER, 2-(3,4-dihydroxyphenyl)-3,5,7-trihydroxy-4H-1-benzopyran-4-one], the water solubility entry is “practically insoluble in water”.
